Measurements taken from patent US6743618B2, “Thermostable proteolytic enzymes and uses thereof in peptide and protein synthesis” (University of Florida Research Foundation, Inc., priority 1996, dated 2004).
Non-standard residues stand in square brackets, D forms with d. Residues, ends and D or L forms follow the SMILES beside them. *: point of attachment. pNA = O=[N+]([O-])c1ccc(N*)cc1; Cbz = O=C(OCc1ccccc1)*; Bz = O=C(c1ccccc1)*

Assays:
[1] = molecular target: T1, P. furiosus protease (Pyrococcus furiosus, UniProt Q8U3Y3); test: Hydrolysis kinetics of synthetic peptide and ester substrates (progress curve / initial velocity analysis); type: biochemical; conditions: for Ki: read-out: Ki (product inhibition constant)
T1 sequence (Q8U3Y3 entry or part of it): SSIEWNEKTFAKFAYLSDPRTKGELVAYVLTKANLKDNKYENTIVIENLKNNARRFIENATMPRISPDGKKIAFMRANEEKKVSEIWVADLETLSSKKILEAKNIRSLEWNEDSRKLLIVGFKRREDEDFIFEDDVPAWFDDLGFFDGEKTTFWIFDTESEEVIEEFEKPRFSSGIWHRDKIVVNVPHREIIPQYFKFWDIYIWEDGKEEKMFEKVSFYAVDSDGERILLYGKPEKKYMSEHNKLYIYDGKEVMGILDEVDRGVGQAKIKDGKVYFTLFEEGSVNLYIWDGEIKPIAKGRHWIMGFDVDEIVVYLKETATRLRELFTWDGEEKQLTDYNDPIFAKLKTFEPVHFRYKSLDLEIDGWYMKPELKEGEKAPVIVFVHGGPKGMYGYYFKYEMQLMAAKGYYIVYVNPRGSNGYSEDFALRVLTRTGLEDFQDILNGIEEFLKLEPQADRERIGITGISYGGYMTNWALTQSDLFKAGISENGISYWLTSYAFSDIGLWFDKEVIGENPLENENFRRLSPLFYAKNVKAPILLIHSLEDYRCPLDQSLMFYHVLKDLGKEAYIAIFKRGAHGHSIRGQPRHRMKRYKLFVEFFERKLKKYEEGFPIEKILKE
Excerpt: (§1) The hydrolysis kinetics of various synthetic peptide and ester protease substrates were studied. Two different methods have been used to analyze the kinetic properties of the enzyme. The first utilized initial velocity data at several substrate concentrations with analysis by plotting s/v νs s (Hanes plot). This method was always used when it was possible that the protease could cleave at more than one site (e.g., PPANA). The second method utilizes all data of the progress curve of the reaction. Progess curves were analyzed in two ways:
(§2) Instantaneous point by point derivatives were calculated from the absorbance νs time data by fitting 10 points spaced 1 second apart by least squares to a second degree polynomial. Derivatives were computed analytically and were used to construct plots of v νs s, which were then analyzed by non-linear regression to obtain Km, kcat and any product inhibition constant (Ki) if it exists. […] For all measurements at elevated temperature, the first-order rate constants for non-enzymic hydrolysis were determined for all substrates. The analytic method described here was used both for reactions at 25.0° C. and 80.0° C.
(§3) For these analyses, the integrated Michaelis-Menten equation was used, but not in linearized form, for reasons relating to product inhibition. Plots of time (now the dependent variable) νs absorbance were constructed from the raw data and analyzed by non-linear regression. […] This method was used for analyses at 25.0° C. only.
(§4) All kinetic studies utilized a Cary 3E double beam spectrophotometer and absorbance νs time data were collected by computer at 1 second intervals. In cases where a peptide substrate could potentially be cleaved at more than one site, thin-layer chromatography was used to establish the products formed (silica gel; butanol:acetone:NH4OH:water—37:37:19:7).
(§5) All of the above are mean values from at least 4 separate experiments. Except for PPANA, values are means of v νs s and integrated rate equation analyses. PPANA values were obtained from initial velocity measurements, analyzed by the Hanes equation. Solvent: 0.025 M Na Phosphate, pH 7.0. […] N. D. means not determined.

[2] = molecular target: T1, P. furiosus protease; test: Activation enthalpy and entropy from Arrhenius plots of initial velocities; type: biochemical
Description: For all kinetic experiments at high temperatures, sodium phosphate (0.025 M) was used as a buffer.
To explore the basis for the extremely large increases in enzyme activity with temperature, initial velocity (vo) measurements were made at 6 different substrate concentrations in order to determine kcat and Km at a series of temperatures in the range of 25.0 to 83.5° C. Temperature was controlled to within ±0.5° C. with a large water bath and jacketed cuvettes. Two substrates were used for these experiments—BAPNA and D-pro-phe-arg-pNA(PPANA).
Within the temperature range accessible to mesophilic enzymes, such plots are linear. […] The data was fitted to a second degree polynomial and the slopes determined as a function of temperature to compute Arrhenius activation energies. These values were used to compute activation enthalpy (ΔH*) and entrophy (ΔS*) as a function of temperature (Eyring, H. (1963) Modern Chemical Kinetics, Rheinhold, N.Y.).

[3] = tested on: trypsin; test: BAPNA hydrolysis by trypsin (comparison); type: biochemical; conditions: BAPNA as substrate, same conditions (25.0 °C)
[4] = pK values used to calculate theoretical yield; type: physicochemical; conditions: for pK1: carboxyl reactant; for pK2: amine nucleophile
Description: Yield is defined as the ratio of product concentration to the initial concentration of the carboxyl reactant (in percent). Theoretical yield was calculated from equations 1, 2 and 3 together with pK1=3.81 (ZGL) and 4.47 (ZGE); pK2=7.93 (leu-NH2) and 7.51 (arg-NH2).

[5] = molecular target: T1, P. furiosus protease; test: Active site inhibitor studies, BAPNA as substrate; type: biochemical
Excerpt: (§6) To assign the class of protease to which the P. furiosus protease belongs, several reagents were used to identify catalytically important residues.
b. […] This reagent reacts rapidly and specifically with the active site histidine residue of the active site triad: ser-his-asp (Shaw, E. “Site-Specific Reagents for Chymotrypsin and Trypsin.” […]. 11:677-686, 1967).

[6] = tested on: Pyrococcus furiosus serine protease (carboxypeptidase/endopeptidase), native, about 81 kDa, N-terminus SEQ ID NO: 1; test: Kinetic studies and substrate specificity (hydrolysis of synthetic peptide and ester substrates; progress curves, Hanes plot); type: biochemical; conditions: for hydrolysis by the protease / product inhibition, Ki compared with Km: in words; for hydrolysis by the protease: at up to 80° C. for arg-pNA (TLC), Table 3 lists HA and ZGP at 25.0° C.; for Km / kcat: 0.025 M Na phosphate, pH 7.0, mean of at least 4 experiments (PPANA: initial velocities, Hanes equation)
Excerpt: as §1, §2
b. Integrated Rate Equation Analyses: t νs Absorbance
as §3
Subroutines for the above analyses were written to analyze the kinetic data for: product competitive inhibition, non-competitive inhibition, 2-product inhibition, and simple Michaelis-Menten kinetics. An HP 9000 series work station was used for this purpose, using HP BASIC.
as §4, §5

[7] = molecular target: T1, P. furiosus protease; test: Product inhibition: initial rate measurements of BAPNA with varying product concentrations; type: biochemical
[8] = tested on: Pyrococcus furiosus serine protease, native, about 81 kDa, N-terminus SEQ ID NO: 1; test: Active site inhibitor studies (BAPNA as substrate); type: biochemical; conditions: 10^−3 M, incubation for 24 hr
Description: as §6
a. Incubation of the enzyme with 10^−3 M EDTA for 24 hr had no effect upon enzyme activity.
b. One of the active-site inhibitors of mesophilic serine proteases is phe-pro-argCH2Cl. This reagent reacts rapidly and specifically with the active site histidine residue of the active site triad: ser-his-asp (Shaw, E. “Site-Specific Reagents for Chymotrypsin and Trypsin.” […]. 11:677-686, 1967).

[9] = tested on: serine protease of the subject invention; test: Digestion of insulin B-chain, products by TLC; type: biochemical, Pyrococcus furiosus; conditions: 80° C., phosphate buffer, pH 7.0, 1 hour
Description: Treatment of the insulin B-chain with the serine protease of the subject invention (80° C., phosphate buffer, pH 7.0) for 1 hour yields 5 ninhydrin-positive components by TLC. No non-enzyme hydrolysis of substrate was detected after this time period. One of the new components is alanine which the carboxy terminus of the B-chain. None of the others is a free amino acid. These studies with insulin provide further evidence that the enzyme is an endopeptidase.

[10] = 25.0 °C, 0.025 M Na phosphate, pH 7.0, total progress curve analyses
[11] = 25.0 °C, BAPNA substrate, sodium phosphate 0.025 M pH 7.0, iodoacetamide 100-fold molar excess

## N=C(N)NCCC[C@H](NC(=O)c1ccccc1)C(=O)Nc1ccc([N+](=O)[O-])cc1 [BAPNA, N-benzoyl-L-arginine-p-nitroanilide]
[1]; 25.0 °C
  Ki compared with Km: Ki<Km
[1]; 25.0 °C, Table 3
  Ki times less than Km: 10
[1]; [10]
  Ki: 70.8 µM
[1]; 80 °C vs 25 °C
  kcat at 80° C. relative to 25° C. (times greater): 65
[1]; 80.0 °C, 0.025 M Na phosphate, pH 7.0, progress curve analysis
  Ki: 220 µM
[2]; 25.0 °C
  ΔH* (activation enthalpy): 17.2 kcal/mol
  ΔS* (activation entropy): 2.2 e.u
[2]; 80.0 °C
  ΔH* (activation enthalpy): 3.1 kcal/mol
  ΔS* (activation entropy): −41.7 e.u
[3]
  kcat: 2.7 s⁻¹

## O=C(O)CC[C@H](NC(=O)CNC(=O)OCc1ccccc1)C(=O)O [ZGE, Z-gly-glu] (Cbz-Gly-Glu-OH)
[4]
  pK1: 4.47

## CC(C)CC(NC(=O)CNC(=O)OCc1ccccc1)C(=O)O (centres unmarked) [ZGL, Z-gly-leu]
[4]
  pK1: 3.81

## N=C(N)NCCC[C@H](NC(=O)[C@@H]1CCCN1C(=O)[C@H](N)Cc1ccccc1)C(=O)CCl [phe-pro-argCH2Cl]
[5]; inhibitor 1.98×10^−6 M, BAPNA 3.8×10^−4 M, 25.0 °C
  pseudo first order inactivation rate constant: 0.022 s⁻¹

## O=C(CNC(=O)OCc1ccccc1)N[C@@H](Cc1ccccc1)C(=O)O [ZGP, carbobenzoxy-gly-phe] (Cbz-Gly-Phe-OH)
[1]; 25.0 °C
  hydrolysis by the enzyme: Remain Unaltered
[6]
  hydrolysis by the protease: Remain Unaltered by the Enzyme

## O=S(=O)(F)Cc1ccccc1 [PMSF, phenyl-methyl-sulfonyl fluoride]
[5]; 8×10^3 molar excess over enzyme, BAPNA substrate, 25.0 °C
  inhibition of enzyme activity: complete inhibition

## O=C(O)CNC(=O)CNC(=O)[C@H](Cc1ccccc1)NC(=O)/C=C/c1ccco1 [FAPGG, furyl-acryloyl-phe-gly-gly]
[6]; 25.0° C.
  Km: 415 µM
  kcat: 10.64 s⁻¹
[6]
  product inhibition, Ki compared with Km: No product inhibition is observed

## CC(NC(=O)C(Cc1ccccc1)NC(=O)OCc1ccccc1)C(=O)O (centres unmarked) [ZPA, carbobenzoxy-phe-ala]
[1]; 25.0 °C
  Ki compared with Km: Ki<Km
[1]; [10]
  Ki: 134 µM

## N=C(N)NCCC[C@H](NC(=O)CNC(=O)c1ccccc1)C(=O)O [HA, hippuryl-arginine] (Bz-Gly-Arg-OH)
[1]; 25.0 °C
  hydrolysis by the enzyme: Remain Unaltered
[6]
  hydrolysis by the protease: Remain Unaltered by the Enzyme

## Nc1ccc([N+](=O)[O-])cc1 [p-nitroaniline]
[7]; concentrations as high as 5×10^−4 M, initial rates of BAPNA
  inhibition by added product: no detectable inhibition

## NC(=O)CI [iodoacetamide]
[5]; [11]
  effect upon the activity of the enzyme: no effect whatsoever

## O=P(O)(O)O [sodium phosphate]
[5]; pH 7
  effect upon the activity of the enzyme: no effect whatsoever

## CCOC(=O)[C@H](Cc1ccc(O)cc1)NC(=O)c1ccccc1 [BTEE, benzoyl-tyrosine ethyl ester]
[1]; [10]
  Ki: 5600 µM

## C[C@H](NC(=O)/C=C/c1ccco1)C(=O)N[C@@H](Cc1ccccc1)C(N)=O [FAAPA, furyl-acryloyl-ala-phe-amide]
[6]; 25.0° C.
  Km: 38.6 µM
  kcat: 7.31 s⁻¹
[6]
  product inhibition, Ki compared with Km: Ki<Km

## N=C(N)NCCC[C@H](NC(=O)c1ccccc1)C(=O)O [benzoyl-L-arginine]
[7]; initial rate measurements of BAPNA with varying product concentration, read-out: Ki (inhibition constant of added product)
  Ki: 65 µM
[1]; [10]
  Ki: 70.8 µM

## CC(C)C[C@H](NC(=O)CNC(=O)/C=C/c1ccco1)C(N)=O [FAGLA, furyl-acryloyl-glycyl-leucine amide]
[1]; 25.0 °C
  Ki compared with Km: Ki<Km
  product inhibition: intense product inhibition
[1]; 25.0 °C, 0.025 M Na phosphate, pH 7.0, PPANA from initial velocities (Hanes)
  Km: 6.08 µM
[1]; 25.0 °C, 0.025 M Na phosphate, pH 7.0, means of at least 4 experiments, PPANA from initial velocities (Hanes)
  kcat: 0.67 s⁻¹

## O=C(/C=C/c1ccco1)N[C@@H](Cc1ccccc1)C(=O)N[C@@H](Cc1ccccc1)C(=O)O [FAPP, furyl-acryloyl-phe-phe]
[6]; 25.0° C.
  Km: 375 µM
  kcat: 4.58 s⁻¹
[6]
  product inhibition, Ki compared with Km: product inhibition is not observed

## NC(=O)[C@@H](N)CCCN=C(N)N [arg-NH2]
[4]
  pK2: 7.51

## CC(C)C[C@H](N)C(N)=O [leu-NH2]
[4]
  pK2: 7.93

## O=C(O)CN(CCN(CC(=O)O)CC(=O)O)CC(=O)O [EDTA]
[5]
  effect upon enzyme activity: no effect
[8]
  effect upon enzyme activity: no effect

## O=C(O)c1cc(SSc2ccc([N+](=O)[O-])c(C(=O)O)c2)ccc1[N+](=O)[O-] [bisdithiodintrobenzene]
[5]; [11]
  effect upon the activity of the enzyme: no effect whatsoever

## insulin B-chain: insulin B-chain, used as a substrate; its carboxy terminus is alanine
[9]
  ninhydrin-positive components by TLC: 5

## N=C(N)NCCC[C@H](N)C(=O)Nc1ccc([N+](=O)[O-])cc1 [arg-pNA]
[1]; even at 80° C.
  hydrolysis by the protease (TLC): does not hydrolyze
[6]
  hydrolysis by the protease: does not hydrolyze arg-pNA at all, even at 80 °C

## N=C(N)NCCC[C@H](NC(=O)[C@H](Cc1ccccc1)NC(=O)[C@H]1CCCN1)C(=O)Nc1ccc([N+](=O)[O-])cc1 [PPANA, D-pro-phe-arg-pNA] (H-[dP]-Phe-Arg-pNA)
[2]; 25.0 °C
  ΔH* (activation enthalpy): 26.1 kcal/mol
  ΔS* (activation entropy): 23.8 e.u
[2]; 80.0 °C
  ΔH* (activation enthalpy): 15.4 kcal/mol
  ΔS* (activation entropy): −9.0 e.u
[6]; 25.0° C.
  Km: 477 µM
  kcat: .045 s⁻¹
[6]; 80.0° C.
  Km: 499 µM
  kcat: 5.44 s⁻¹
[6]; kcat at 80° C. vs 25° C.
  kcat ratio 80° C./25° C.: 120 times
